Patent US20240316038A1, “APOL1 INHIBITORS AND METHODS OF USE” (Maze Therapeutics, Inc., priority 2021, published 2024)

What was measured:
APOL1 G2 [1] = biological target: T1, APOL1 G2 (Homo sapiens, UniProt O14791, DEL388-389); assay: APOL1 calcium transport inhibition assay (GCaMP6f calcium influx, FLIPR) in HEK T-REx/GCaMP6f/APOL1 G2 K6.3 cells; type: cell-based; conditions: inhibition of APOL1-mediated calcium influx; geometric mean of at least 2 assay runs, † = single assay run (technical duplicate)
T1 construct: expressed in transfected cells; host or cells: HEK293 T-REx clonal lines: HEK T-REx/GCaMP6f/APOL1 G2 K6.3 in A1, HEK293/T-REx APOL1 G2/clone #2 in A2
T1 sequence (O14791 with tags, fused parts or gaps DEL388-389): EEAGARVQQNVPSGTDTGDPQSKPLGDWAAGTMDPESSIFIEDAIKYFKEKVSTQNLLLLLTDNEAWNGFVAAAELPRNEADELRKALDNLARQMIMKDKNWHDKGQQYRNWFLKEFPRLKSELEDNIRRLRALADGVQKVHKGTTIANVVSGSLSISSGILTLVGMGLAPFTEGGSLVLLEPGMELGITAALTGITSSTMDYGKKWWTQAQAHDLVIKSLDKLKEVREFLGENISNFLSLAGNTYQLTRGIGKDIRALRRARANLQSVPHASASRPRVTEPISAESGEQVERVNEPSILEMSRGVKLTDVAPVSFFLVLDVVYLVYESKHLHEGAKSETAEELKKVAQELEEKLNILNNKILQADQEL
Summary of the method: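 HEK293 cells stably expressing GCaMP6f, APOL1 G2 induced 6 h with doxycycline (20 ng/mL added), then washed into Ca2+-free Tyrode's buffer pH 7.4. Compounds (8-point dose response) preincubated 10 min at room temperature, then Ca2+ injected to 5 mM final and influx read on FLIPR. AC50 reported as geometric mean of runs.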

APOL1 G2 [2] = biological target: T1, APOL1 G2; assay: Rescue of HEK293 cell death caused by overexpression of APOL1 (CellTiter-Glo luminescence), HEK293/T-REx APOL1 G2/clone #2; type: cell-based; conditions: reversal of cell death caused by overexpression of APOL1; geometric mean of at least 2 assay runs, † = single assay run (technical duplicate)
Summary of the method: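 HEK293/T-REx APOL1 G2 clone #2 cells, 5,000/well, induced with 6 ng/mL doxycycline and exposed to compound (8-point, 3-fold dilutions, 0.5% DMSO) for 17 h at 37 °C. Viability by CellTiter-Glo luminescence; EC50 for reversal of APOL1-induced death from a four-parameter logistic fit, geometric mean of ≥2 runs.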

Row | Compound | AC50 (APOL1 G2 [1]) [nM] | EC50 (APOL1 G2 [2]) [nM]
1 | CS(=O)(=O)c1ccc(OC[C@H](O)CN[C@H]2C[C@H](c3cccc(Cl)c3)C2)cc1 [Compound 67, (R)-1-((trans-3-(3-chlorophenyl)cyclo-butyl)amino)-3-(4-(methylsulfonyl)phe-noxy)propan-2-ol] | 340 | 1350
2 | COC1CCN(CCc2cccc(Cl)c2)CC1COc1ccc(S(C)(=O)=O)cc1 (single isomer, unassigned) [Compound 38, (3S,4S) or (3R,4S) or (3 S,4R) or (3R,4R)-1-(3-chlorophenethyl)-4-methoxy-3-((4-(methylsulfonyl)phenoxy)methyl) piperidine] | < 253 | 407
3 | COc1ccccc1CCNC[C@H](O)COc1ccc(N(C)S(C)(=O)=O)cc1 [Compound 98, (S)-N-(4-(2-hydroxy-3-((2-methoxyphenethyl)amino)propoxy)phe-nyl)-N-methylmethanesulfon-amide] | 3920 | > 20000
4 | CS(=O)(=O)c1ccc(OC[C@@H](O)CN2CCCCC2Cc2cccc(Cl)c2)cc1 (stereo partly drawn) [Compound 62, (2S)-1-(2-(3-chlorobenzyl)piperidin-1-yl)-3-(4-(methylsulfonyl)phenoxy)propan-2-ol] | 396 | 642
5 | CN(c1ccc(OCC2CCCN(CCc3cccc(Cl)c3)C2)cc1)S(C)(=O)=O (single isomer, unassigned) [Compound 9, (R) or (S)—N-(4-((1-(3-chlorophenethyl)piperidin-3-yl)methoxy)phenyl)-N-methylmethanesulfonamide] | 151 | 263
6 | CN(c1ccc(OC[C@@H](O)CN2CCC(c3cccc(Cl)c3)C2(C)C)cc1)S(C)(=O)=O (single isomer, unassigned) [Compound 70, N-(4-((R)-(S)-3-((R) or (S)-3-(3-chlorophenyl)-2,2-dimethylpyrrolidin-1-yl)-2-hydroxypropoxy)phe-nyl)-N-methylmethanesulfon-amide] | 295 | 303
7 | C[C@@H]1CN(CCc2cccc(Cl)c2)C[C@H]1COc1ccc(S(C)(=O)=O)cc1 (racemic) [Compound 52, rac-trans-1-(3-chlorophenethyl)-3-methyl-4-((4-(methylsulfonyl)phenoxy)methyl)pyrrolidine] | 79 | 124
8 | CN(c1ccc(OC[C@H](O)CN2CCC(c3cccc(Cl)c3)C2)cc1)S(C)(=O)=O (stereo partly drawn) [Compound 77, N-(4-((2R)-3-(3-(3-chlorophenyl)pyrro-lidin-1-yl)-2-hydroxypropoxy)phe-nyl)-N-methylmethanesulfon-amide] | 1670 | > 6300
9 | CN(c1ccc(OCC2CN(CCc3cccc(Cl)c3)CCCO2)cc1)S(C)(=O)=O (single isomer, unassigned) [Compound 11, (R) or (S)-N-(4-((4-(3-chlorophenethyl)-1,4-oxazepan-2-yl)methoxy)phenyl)-N-methylmethane-sulfonamide] | 1190 | 1000
10 | CC1(C)CC(COc2ccc(S(C)(=O)=O)cc2)CN1CCc1cccc(Cl)c1 (single isomer, unassigned) [Compound 43, (S) or (R)-1-(3-chlorophenethyl)-2,2-dimethyl-4-((4-(methylsulfonyl)phenoxy)methyl) pyrrolidine] | 237 | 31
11 | CC1(C)CC(COc2ccc(S(C)(=O)=O)cc2)CN1CCc1cccc(Cl)c1 (stereo not shown) [Compound 42, 1-(3-chlorophenethyl)-2,2-dimethyl-4-((4-(methylsulfonyl)phenoxy)methyl) pyrrolidine] | 477 | 59
12 | CC1(C)CC(COc2ccc(S(C)(=O)=O)cc2)CN1CCc1cccc(Cl)c1 (single isomer, unassigned) [Compound 44, (R) or (S)-1-(3-chlorophenethyl)-2,2-dimethyl-4-((4-(methylsulfonyl)phenoxy)methyl)pyrrolidine] | 2220 | 2430
13 | CS(=O)(=O)c1ccc(OC[C@@H](O)CN[C@H]2C[C@H](c3cccc(Cl)c3)C2)cc1 [Compound 66, (S)-1-((trans-3-(3-chlorophenyl)cyclo-butyl)amino)-3-(4-(methylsulfonyl)phe-noxy)propan-2-ol] | 468 | 1380

Now from value to compound, other results behind:

Row | AC50 (APOL1 G2 [1]) [nM] | Compound | EC50 (APOL1 G2 [2]) [nM]
14 | 737 | Cc1c(C#N)cc(Cl)cc1CCN1C[C@@H](COc2ccc(S(C)(=O)=O)cc2)C[C@H]1C [Compound 141, 5-chloro-3-{2-[(2R,4S)-4-[(4-methanesulfon-ylphenoxy)meth-yl]-2-methyl-pyrrolidin-1-yl]-ethyl}-2-methyl-benzonitrile] | 78.9
15 | 860 | CC1CC(COc2ccc(S(C)(=O)=O)cc2)CN1CCc1cc(Cl)cc(C#N)c1 (single isomer, unassigned) [Compound 202, rac-trans or cis-3-chloro-5-{2-[4-[(4-methanesulfonylphenoxy)methyl]-2-methylpyrrolidin-1-yl]ethyl}benzonitrile] | 89
16 | 374 | C[C@@H]1C[C@H](COc2ccc(S(C)(=O)=O)cc2)CN1CCc1cccc(Cl)c1 [Compound 153, (2R,4S)-1-[2-(3-chlorophenyl)-ethyl]-4-[(4-methanesulfon-ylphenoxy)meth-yl]-2-methyl-pyrrolidine] | 27.8
17 | 270 | C[C@@H]1CN(CC(O)c2cc(Cl)cc(C#N)c2)C[C@H]1COc1ccc(S(C)(=O)=O)cc1 (single isomer, unassigned) [Compound 121, 3-chloro-5-[(1S or 1R)-1-hydroxy-2-[(3S,4S)-3-[(4-methanesulfonylphenoxy)methyl]-4-methylpyrrolidin-1-ylethyl]benzonitrile] | 100
18 | 1990 | C[C@H]1CN(CCc2cccc(Cl)c2)C[C@H]1COc1ccc(S(C)(=O)=O)cc1 (single isomer, unassigned) [Compound 152, (3S,4R or 3R, 4S)-1-[2-(3-chlorophenyl)-ethyl]-3-[(4-methanesulfon-ylphenoxy)meth-yl]-4-methyl-pyrrolidine] | 4720
19 | 37.5 | CN=S(C)(=O)c1ccc(OC[C@@H]2CN(CCc3cccc(C#N)c3)C[C@H]2C)cc1 (single isomer, unassigned) [Compound 170, 3-{2-[(3S,4S)-3-methyl-4-({4-[(R or S)-methyl(methylimi-no)oxo-λ^6-sulfanyl]phenoxy}methyl)pyrrolidin-1-yl]ethyl}benzonitrile] | 76
20 | 1260 | CCc1ccccc1CCNC[C@H](O)COc1ccc(N(C)S(C)(=O)=O)cc1 [Compound 100, (S)-N-(4-(3-((2-ethylphenethyl)ami-no)-2-hydroxypropoxy)phe-nyl)-N-methylmethanesulfon-amide] | 2730
21 | 228 | COc1ccc(Cl)cc1CCN1CCN[C@H](COc2ccc(S(C)(=O)=O)cc2)C1 [Compound 191, (3S)-1-[2-(5-chloro-2-methoxyphenyl)ethyl]-3-[(4-methanesulfonylphenoxy)methyl]piperazine] | 663
22 | 382 | C[C@@H]1CC[C@H](COc2ccc(S(C)(=O)=O)cc2)CN1CCc1cccc(Cl)c1 [Compound 160, (2R,5S)-1-[2-(3-chlorophenyl)ethyl]-5-[(4-methanesulfonylphenoxy)methyl]-2-methylpiperidine] | 584
23 | 374 | C[C@@H]1C[C@H](COc2ccc(S(C)(=O)=O)cc2)CN1CC(O)c1cccc(C#N)c1 (single isomer, unassigned) [Compound 116, 3-[(1R or 1S)-1-hydroxy-2-[(2R,4S)-4-[(4-methanesulfonylphenoxy)methyl]-2-methylpyrrolidin-1-yl]ethyl] benzonitrile] | 76
24 | 428 | C[C@@H]1C[C@H](COc2ccc(S(C)(=O)=O)cc2)CN1CC(O)c1cccc(Cl)c1 (single isomer, unassigned) [Compound 214, (1R) or (1S)-1-(3-chlorophenyl)-2-[(2R,4S)-4-[(4-methanesulfonylphenoxy)methyl]-2-methylpyrrolidin-1-yl]ethan-1-ol] | 679
25 | < 420 | CC1(O)CN(CCc2cccc(Cl)c2)CC1COc1ccc(S(C)(=O)=O)cc1 (racemic) [Compound 208, rac-trans-1-[2-(3-chlorophenyl)ethyl]-4-[(4-methanesulfonylphenoxy)methyl]-3-methylpyrrolidin-3-ol] | 3570
26 | 2350 | C[C@@H]1CN(CC(O)c2cccc(Cl)c2)C[C@H]1COc1ccc(S(C)(=O)=O)cc1 (single isomer, unassigned) [Compound 125, (1S or 1R)-1-(3-chlorophenyl)-2-[(3S,4S)-3-[(4-methanesulfonylphenoxy)methyl]-4-methylpyrrolidin-1-yl]ethan-1-ol] | 1550
